27 molecules from patent publication US20110166144A1, “Pyrimidotriazinediones and Pyrimidopyrimidinediones and Methods of Using the Same” (THE REGENTS OF THE UNIVERSITY OF MICHIGAN, priority 2008, published 2011) can be followed below.

Structures are written as SMILES. Read-outs that look alike come from different tables or passages of the source.

The subject of series [1] is IEC18 Rat Epithelial Cells (IEC18-S33Y). The note with it: 17-20 h with compound, WST-1. Here is the method:
Using the above assay system, IC50 and LD50 values were determined for the pyrimidotriazinedione compounds. IEC18-S33Y cells carrying a β-catenin firefly luciferase cassette and a constitutively active renilla luciferase cassette were seeded at 40,000 cells/well in 96-well tissue culture plates (BD Biosciences, Bedford, Mass.) in a total volume of 80 μL of tissue culture medium (Dulbecco's modified Eagle medium without Phenol-Red (Invitrogen, Carlsbad, Calif.) supplemented with 10% (v/v) fetal bovine serum (Hyclone, Logan, Utah)) and incubated for 24 h. […] Working solutions of the compounds were obtained by further diluting the stock solutions in tissue culture medium by at least 50-fold. Serial twofold dilutions of the working solutions of the compounds were added to the cells in a volume of 40 μL and the cells were incubated in the presence of the compounds for 17-20 h.
LD50 values of the pyrimidotriazinediones then were determined using a WST-1 colorimetric cell proliferation assay. A mixture containing 20 μL of medium and 10 μL of WST-1 reagent (available from Roche, Indianapolis, Ind.) was added to the cells and the cells were incubated for 1 h at 37° C., after which time absorption at 550 nm was measured using a microplate reader.

The test system of the next series is β-catenin/TCF complex. As to the kind of experiment: cells. In kind it is cell-based.
The mark [2] stands for this setting: Rattus norvegicus, IEC18-S33Y cells, 17-20 h with compound, β-catenin-dependent firefly luciferase with Renilla control, read-out: IC50.

A word on the IC50: it is the concentration at which inhibition is half-maximal. As a reminder, the melting point is the temperature, or range, at which the solid turns liquid.

`Cc1ccc(-c2nc3c(=O)n(C)c(=O)nc-3n(CCO)n2)cc1` [Compound 8b, 1-(2-Hydroxyethyl)-6-methyl-3-(4-methylphenyl)pyrimido[5,4-e][1,2,4]triazine-5,7(1H,6H)-dione]: in series [1], the LD50 is 2.55 ± 21.76 µM. The IC50 in the series on β-catenin/TCF complex (setting [2]) is 320 ± 230 nM. For the molecule `Cn1c(=O)nc2n(CCO)nc(-c3ccc(Cl)cc3)nc-2c1=O` [Compound 8c, 3-(4-Chlorophenyl)-1-(2-hydroxyethyl)-6-methylpyrimido[5,4-e][1,2,4]triazine-5,7(1H,6H)-dione], in series [1], the LD50 is 6.36 ± 21.76 µM. In addition, in the series with β-catenin/TCF complex (setting [2]), the IC50 was determined as 4560 ± 8240 nM. Take `Cn1c(=O)c2nc(-c3ccccc3)nnc2n(Cc2ccc(F)cc2)c1=O`: the melting point is 253 to 254 °C. `COc1ccc(-c2nc3c(=O)n(C)c(=O)nc-3n(CCO)n2)cc1OC`: the melting point is 215 to 218 °C (dec.). Turning to `Cc1nc2c(=O)n(C)c(=O)nc-2n(C)n1` [Compound 5b, 1,3,6-Trimethylpyrimido[5,4-e][1,2,4]triazine-5,7(1H,6H)-dione], the LD50 in series [1] came to 2.02 ± 0.75 µM. The 50% inhibitory concentration (IC50) in the series with β-catenin/TCF complex (setting [2]) stood at 1000 ± 190 nM. Taken in the same sequence, the figures for `Cn1nc(-c2ccc(F)cc2)nc2c(=O)n(C)c(=O)nc1-2` [Compound 5f, 3-(4-Fluorophenyl)-1,6-dimethylpyrimido[5,4-e][1,2,4]triazine-5,7(1H,6H)-dione] were 1.10 ± 0.01 µM and 300 ± 70 nM. As to `Cn1nc(-c2ccccc2F)nc2c(=O)n(Cc3ccc(F)c(F)c3)c(=O)nc1-2` [Compound 17e, 6-(3,4-Difluorobenzyl)-3-(2-fluorophenyl)-1-methylpyrimido[5,4-e][1,2,4]triazine-5,7(1H,6H)-dione], in series [1], the LD50 was determined as 0.48 ± 0.10 µM. Moreover, in the series with β-catenin/TCF complex (IEC18-S33Y cells), the “inhibitory activity of β-catenin-mediated transcription (in words)” value is “antagonized β-catenin-mediated transcription”. In the series on β-catenin/TCF complex (setting [2]), the IC50 amounted to 110 ± 60 nM.

`Cn1nc(-c2ccc(Cl)cc2)nc2c(=O)n(C)c(=O)nc1-2` [Compound 5h, 3-(4-Chlorophenyl)-1,6-dimethylpyrimido[5,4-e][1,2,4]triazine-5,7(1H,6H)-dione]: the LD50 in series [1] is 2.84 ± 0.80 µM. In addition, the IC50 in the series with β-catenin/TCF complex (setting [2]) was found to be 1050 ± 290 nM. Consider `CCN(CC)CCOc1ccc(-c2nnc3c(n2)c(=O)n(C)c(=O)n3Cc2cccc(F)c2)cc1` [Compound 10c, 3-(4-(2-(Diethylamino)ethoxy)phenyl)-8-(3-fluorobenzyl)-6-methylpyrimido[5,4-e][1,2,4]triazine-5,7(6H,8H)-dione], for which, in series [1], the LD50 was determined as 21.49 ± 10.42 µM. Besides, the IC50 in the series on β-catenin/TCF complex (setting [2]) is 23400 ± 2830 nM. As for `Cn1c(=O)nc2[nH]nc(-c3ccccc3F)nc-2c1=O`, the melting point lay within 248 to 250 °C.

Turning to `Cn1nc(-c2ccc(Cl)cc2)[n+]([O-])c2c(=O)n(C)c(=O)nc1-2`, in series [1], the LD50 turned out to be 2.01 ± 2.58 µM. Further, the half-inhibitory concentration (IC50) with β-catenin/TCF complex (setting [2]) came out at 700 ± 150 nM. For the molecule `Cn1c(=O)c2nc(-c3ccccc3)nnc2n(Cc2ccc([N+](=O)[O-])cc2)c1=O`, the melting point is 274 to 280 °C (dec.).

As to `Cn1nc(-c2ccccc2)[n+]([O-])c2c(=O)n(C)c(=O)nc1-2`, in series [1], the LD50 came to 1.71 ± 46.77 µM. The half-maximal inhibitory concentration (IC50) with β-catenin/TCF complex (setting [2]) turned out to be 490 ± 220 nM. Regarding `Cn1c(=O)c2nc(-c3ccc(F)cc3)nnc2n(Cc2ccc(C(C)(C)C)cc2)c1=O` [Compound 7h, 8-(4-tert-Butylbenzyl)-3-(4-fluorophenyl)-6-methylpyrimido[5,4-e][1,2,4]triazine-5,7(6H,8H)-dione], the IC50 in the series with β-catenin/TCF complex (setting [2]) was 330 ± 10 nM. On the same count and under the same terms, as for `Cn1c(=O)c2nc(-c3ccccc3F)nnc2n(Cc2ccccc2)c1=O` [Compound 7d, 8-Benzyl-3-(2-fluorophenyl)-6-methylpyrimido[5,4-e][1,2,4]triazine-5,7(6H,8H)-dione], the figure is 3600 ± 2250 nM.

Regarding `Cn1c(=O)nc2n(CCO)nc(-c3ccccn3)nc-2c1=O` [Compound 8j, 1-(2-Hydroxyethyl)-6-methyl-3-(pyridin-2-yl)pyrimido[5,4-e]-[1,2,4]triazine-5,7(1H,6H)-dione], the LD50 in series [1] came out at 9.55 ± 0.001 µM. Also, the IC50 in the series on β-catenin/TCF complex (setting [2]) worked out at 3810 ± 590 nM.

Take `Cn1nc(-c2ccccc2)nc2c(=O)n(C)c(=O)nc1-2` [Compound 5d, 1,6-Dimethyl-3-phenylpyrimido[5,4-e][1,2,4]triazine-5,7(1H,6H)-dione]: the LD50 in series [1] stood at 1.39 ± 0.44 µM. In addition, the IC50 with β-catenin/TCF complex (setting [2]) came to 530 ± 100 nM. Regarding `Cc1ccc(-c2nc3c(=O)n(C)c(=O)nc-3n(C)n2)cc1` [Compound 5e, 1,6-Dimethyl-3-(4-methylphenyl)pyrimido[5,4-e][1,2,4]triazine-5,7(1H,6H)-dione], the LD50 in series [1] came out at 0.84 ± 0.25 µM. Moreover, in the series on β-catenin/TCF complex (setting [2]), the IC50 amounted to 680 ± 90 nM. As for `Cc1ccc(-c2n[nH]c3nc(=O)n(C)c(=O)c-3n2)cc1` [Compound 6a, 6-Methyl-3-p-tolylpyrimido[5,4-e][1,2,4]triazine-5,7(1H,6H)-dione], in series [1], the LD50 was over 50 µM. The IC50 in the series with β-catenin/TCF complex (setting [2]) is 21100 ± 14100 nM. For the molecule `Cn1nc(-c2ccccc2F)nc2c(=O)n(C)c(=O)nc1-2` [Compound 5g, 3-(2-Fluorophenyl)-1,6-dimethylpyrimido[5,4-e][1,2,4]triazine-5,7(1H,6H)-dione], the LD50 in series [1] was found to be 0.71 ± 3.31 µM. Further, the IC50 in the series with β-catenin/TCF complex (setting [2]) came to 190 ± 14 nM. In the case of `CCN(CC)CCOc1ccc(-c2nc3c(=O)n(C)c(=O)nc-3n(C)n2)cc1` [Compound 5l, 3-(4-(2-(Diethylamino)ethoxy)phenyl)-1,6-dimethylpyrimido[5,4-e][1,2,4]triazine-5,7(1H,6H)-dione], the LD50 in series [1] was determined as 0.136 ± 1 µM. Moreover, the IC50 with β-catenin/TCF complex (setting [2]) was found to be 16 ± 18 nM. On to `Cn1c(=O)nc2n(CCO)nc(-c3ccc(OCCN4CCCC4)cc3)nc-2c1=O` [Compound 8f, 1-(2-Hydroxyethyl)-6-methyl-3-(4-(2-(pyrrolidin-1-yl)ethoxy)phenyl)pyrimido[5,4-e][1,2,4]triazine-5,7(1H,6H)-dione], for which, in series [1], the LD50 turned out to be 1.55 ± 0.22 µM. The IC50 in the series on β-catenin/TCF complex (setting [2]) was determined as 1340 ± 150 nM. Regarding `COc1ccc(-c2nc3c(=O)n(C)c(=O)nc-3n(CCO)n2)cc1` [Compound 8e, 1-(2-Hydroxyethyl)-3-(4-methoxyphenyl)-6-methylpyrimido[5,4-e][1,2,4]triazine-5,7(1H,6H)-5,7-dione], the LD50 in series [1] is 8.39 ± 10.29 µM. In the series with β-catenin/TCF complex (IEC18-S33Y cells, 17-20 h with compound, β-catenin-dependent firefly luciferase with Renilla control, read-out: IC50), the half-maximal inhibitory concentration (IC50) was 6070 ± 4910 nM. `Cn1nc(-c2cccc(Cl)c2)nc2c(=O)n(C)c(=O)nc1-2` [Compound 5i, 3-(3-Chlorophenyl)-1,6-dimethylpyrimido[5,4-e][1,2,4]triazine-5,7(1H,6H)-dione]: in series [1], the LD50 turned out to be 23.88 ± 5.17 µM. Moreover, the concentration for half-maximal inhibition (IC50) in the series with β-catenin/TCF complex (setting [2]) is 5030 ± 1180 nM. Consider `Cn1c(=O)nc2n(CCO)nc(-c3ccccc3)nc-2c1=O` [Compound 8a, 1-(2-Hydroxyethyl)-6-methyl-3-phenylpyrimido[5,4-e][1,2,4]triazine-5,7(1H,6H)-dione], for which the LD50 in series [1] is 2.09 ± 0.78 µM. Also, in the series with β-catenin/TCF complex (setting [2]), the IC50 was 970 ± 220 nM. With `CCc1nc2c(=O)n(C)c(=O)nc-2n(C)n1` [Compound 5c, 3-Ethyl-1,6-dimethylpyrimido[5,4-e][1,2,4]triazine-5,7(1H,6H)-dione], in series [1], the LD50 turned out to be 2.94 ± 10 µM. Further, in the series on β-catenin/TCF complex (setting [2]), the IC50 was found to be 1420 ± 250 nM. As for `Cn1nc(-c2ccc(Cl)c(Cl)c2)nc2c(=O)n(C)c(=O)nc1-2` [Compound 5j, 3-(3,4-Dichlorophenyl)-1,6-dimethylpyrimido[5,4-e][1,2,4]triazine-5,7(1H,6H)-dione], in series [1], the LD50 is 30.1 ± 17.54 µM. In the series on β-catenin/TCF complex (Rattus norvegicus), this molecule had an IC50 of 9320 ± 7440 nM.
